This is an account of results in patent US9365566B2 (Takeda Pharmaceutical Company Limited, priority 2012, dated 2016).

Each structure is given as a SMILES string. pIC50: −log10 of the molar value.

The target of the assay is T1, human BTK (Homo sapiens, UniProt Q06187).
T1 construct: GST (Glutathione-S-Transferase) (cleaved yes); made in house; host or cells: Spodoptera frugiperda Sf9 cells (baculovirus, Bac-to-Bac)
T1 sequence (Q06187 382-659): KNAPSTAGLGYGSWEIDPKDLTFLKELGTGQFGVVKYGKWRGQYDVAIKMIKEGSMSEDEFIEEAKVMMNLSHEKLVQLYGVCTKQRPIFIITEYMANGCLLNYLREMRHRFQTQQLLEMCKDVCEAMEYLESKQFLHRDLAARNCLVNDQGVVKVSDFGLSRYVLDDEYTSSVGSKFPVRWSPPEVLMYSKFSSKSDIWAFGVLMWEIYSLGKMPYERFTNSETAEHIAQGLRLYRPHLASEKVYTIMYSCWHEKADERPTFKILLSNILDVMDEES
The assay can be described thus: BTK inhibition assay: BTK-mediated phosphorylation of FAM-labeled substrate 5-FAM-EEPLYWSFPAKKK-NH2 (Caliper LC-3000). The following applies: pIC50 = -log(IC50), IC50 molar; residues 382 to 659 of human BTK; incubated at room temperature for 60 minutes; larger values represent higher potency. It counts as biochemical. An excerpt:
The activity of compounds as BTK inhibitors may be determined by a variety of methods, including in vitro and in vivo methods.
This construct engineers an in-frame translational fusion with the Glutathione-S-Transferase (GST) protein for use in affinity purification. The fusion protein derived from this construct contains a protease recognition sequence to liberate the BTK from the GST affinity tag. High-titer baculoviral stocks, generated using the Bac-to-Bac® system (Invitrogen), are used to express the recombinant protein in Spodoptera frugiperda Sf9 cells in 10 L Wave bags. Recombinant proteins are isolated from cellular extracts by passage over Glutathione Sepharose 4B (GE Healthcare) and the BTK moiety is released from the GST affinity tag by treatment with PreScission protease. The BTK recombinant protein is further purified by size exclusion chromatography (HiLoad 16/60 Superdex 200, GE Healthcare) in a buffer containing 20 mM Hepes (pH 7.4), 50 mM NaCl, 10 mM MgCl2, 0.25 mM TCEP and 0.1 mM EDTA. The purity of the fractions is assessed by SDS PAGE and the peak protein fractions are pooled and concentrated using Amicon Ultra-15 Centrifugal Filter Devices (Millipore).
The inhibitory properties of compounds relative to BTK is determined using a black 384-well-plate format in a buffer which contains 50 mM Hepes, 10 mM NaCl, 10 mM MgCl2, 0.2 mM EDTA, 0.01% Brij35®, 1 mM DTT, and 0.1 mg/mL BSA at pH 7.3. The test compound is prepared in DMSO using 2-fold serial dilutions for 11 data points, which are added to the buffer so that each dilution contains 3% DMSO. […] The reaction mixtures are incubated at room temperature for 60 minutes and then quenched by adding 25 μL of 50 mM EDTA. To quantify the fluorescent-labeled substrate and product following reaction, the test plate is loaded on a Caliper LC-3000, which measures percent of conversion by microfluidic-based separation.
The compounds were tested in accordance with the assay described on page 34 of the specification.
Usually pIC50 stands for −log10 of the IC50, conventionally taken in molar units. Low readings indicate a large IC50, high ones a small IC50. With `NC(=O)c1nnc2c(-c3cc4[nH]ncc4cc3Cl)ccc(F)c2c1N` [Example 107, 4-amino-8-(5-chloro-1H-indazol-6-yl)-5-fluorocinnoline-3-carboxamide], the pIC50 was 7.80. With `Cc1ccc2c(N)c(C(N)=O)nnc2c1-c1ccc2cn[nH]c2c1F` [Example 104, 4-amino-8-(7-fluoro-1H-indazol-6-yl)-7-methylcinnoline-3-carboxamide], the pIC50 was 7.50. The value for `COc1cc2cn[nH]c2cc1-c1cccc2c(N)c(C(N)=O)nnc12` [Example 110, 4-amino-8-(5-methoxy-1H-indazol-6-yl)cinnoline-3-carboxamide] was 8.40; that for `Cc1cc(C)c2c(N)c(C(N)=O)nnc2c1-c1ccc2cn[nH]c2c1` [Example 53, 4-amino-8-(1H-indazol-6-yl)-5,7-dimethylcinnoline-3-carboxamide] was 7.30. `Cc1cc2cn[nH]c2cc1-c1ccc(F)c2c(N)c(C(N)=O)nnc12` [Example 43, 4-amino-5-fluoro-8-(5-methyl-1H-indazol-6-yl)cinnoline-3-carboxamide] had a negative logarithm of the IC50 (pIC50) of 8.20. The value for `COc1ccc2c(N)c(C(N)=O)nnc2c1-c1ccc2cn[nH]c2c1` [Example 41, 4-amino-8-(1H-indazol-6-yl)-7-methoxycinnoline-3-carboxamide] was 7.60; that for `NC(=O)c1nnc2c(-c3ccc4nc(-c5ccccc5Cl)[nH]c4c3)cccc2c1N` [Example 70, 4-amino-8-(2-(2-chlorophenyl)-1H-benzo[d]imidazol-6-yl)cinnoline-3-carboxamide] was 7.10; that for `NC(=O)c1nnc2c(-c3ccc4nc(NCc5cccs5)[nH]c4c3)cccc2c1N` [Example 88, 4-amino-8-(2-(thiophen-2-ylmethylamino)-1H-benzo[d]imidazol-6-yl)cinnoline-3-carboxamide] was 8.00.

With `Cc1ccc2c(N)c(C(N)=O)nnc2c1-c1ccc2[nH]nnc2c1` [Example 48, 4-amino-8-(1H-benzo[d][1,2,3]triazol-5-yl)-7-methylcinnoline-3-carboxamide], the pIC50 was 7.70. As for `Cn1cnc2cc(-c3cccc4c(N)c(C(N)=O)nnc34)cnc21` [Example 13, 4-amino-8-(3-methyl-3H-imidazo[4,5-b]pyridin-6-yl)cinnoline-3-carboxamide], the negative logarithm of the IC50 (pIC50) is 4.40.

Molecule `NC(=O)c1nnc2c(-c3ccc4c(c3)CNC4=O)ccc(F)c2c1N` [Example 125, 4-amino-5-fluoro-8-(1-oxoisoindolin-5-yl)cinnoline-3-carboxamide] gave a pIC50 of 7.40. Against the preceding molecule, the pIC50 is 3.00 log units higher.

Molecule `Cc1ccc2c(N)c(C(N)=O)nnc2c1-c1ccc2c(Cl)n[nH]c2c1` [Example 108, 4-amino-8-(3-chloro-1H-indazol-6-yl)-7-methylcinnoline-3-carboxamide] showed a pIC50 of 7.40. In the case of `Cc1cc(F)c2c(N)c(C(N)=O)nnc2c1-c1ccc2[nH]ncc2c1` [Example 60, 4-amino-5-fluoro-8-(1H-indazol-5-yl)-7-methylcinnoline-3-carboxamide] it was 8.10; in that of `CCc1ccc2c(N)c(C(N)=O)nnc2c1-c1ccc2[nH]ncc2c1` [Example 62, 4-amino-7-ethyl-8-(1H-indazol-5-yl)cinnoline-3-carboxamide], 8.30; in that of `CC(C)(C)n1cnc2cc(-c3cccc4c(N)c(C(N)=O)nnc34)ccc21` [Example 19, 4-amino-8-(1-tert-butyl-1H-benzo[d]imidazol-5-yl)cinnoline-3-carboxamide], 4.80. In the case of `NC(=O)c1nnc2c(N3CCc4cn[nH]c4C3)cccc2c1N` [Example 85, 4-amino-8-(4,5-dihydro-1H-pyrazolo[3,4-c]pyridin-6(7H)-yl)cinnoline-3-carboxamide], the pIC50 is 6.00. Against the preceding molecule, the pIC50 is 1.20 log units higher.

As to `NC(=O)c1nnc2c(-c3ccc4nc(Nc5ccccc5)[nH]c4c3)cccc2c1N` [Example 87, 4-amino-8-(2-(phenylamino)-1H-benzo[d]imidazol-6-yl)cinnoline-3-carboxamide], the pIC50 is 7.00. Consider `Cc1ccc2c(N)c(C(N)=O)nnc2c1-c1cnc2c(c1)ncn2C` [Example 98, 4-amino-7-methyl-8-(3-methyl-3H-imidazo[4,5-b]pyridin-6-yl)cinnoline-3-carboxamide], for which the negative-log IC50 (pIC50) was 5.30.

Regarding `NC(=O)c1nnc2c(-c3ccc4c(c3)NC(=O)C4)cccc2c1N` [Example 20, 4-amino-8-(2-oxoindolin-6-yl)cinnoline-3-carboxamide], the negative-log IC50 (pIC50) is 4.40.

Regarding `CCc1ccc2c(N)c(C(N)=O)nnc2c1-c1ccc2cn[nH]c2c1` [Example 61, 4-amino-7-ethyl-8-(1H-indazol-6-yl)cinnoline-3-carboxamide], the negative logarithm of the IC50 (pIC50) was 8.00.

Regarding `Cc1ccc(CNc2nc3ccc(-c4cccc5c(N)c(C(N)=O)nnc45)cc3[nH]2)cc1` [Example 95, 4-amino-8-(2-(4-methylbenzylamino)-1H-benzo[d]imidazol-6-yl)cinnoline-3-carboxamide], the pIC50 was 7.20. In the case of `Cn1cnc2cc(-c3cccc4c(N)c(C(N)=O)nnc34)ccc21` [Example 12, 4-amino-8-(1-methyl-1H-benzo[d]imidazol-5-yl)cinnoline-3-carboxamide] it was 4.80; in that of `Cn1ccc2ccc(-c3cccc4c(N)c(C(N)=O)nnc34)cc21` [Example 9, 4-amino-8-(1-methyl-1H-indol-6-yl)cinnoline-3-carboxamide], 6.00. In turn, `Cc1ccc2c(N)c(C(N)=O)nnc2c1-c1ccc2c(c1)CNC2=O` [Example 124, 4-amino-7-methyl-8-(1-oxoisoindolin-5-yl)cinnoline-3-carboxamide] had a pIC50 of 8.20. In the case of `Cc1ccc2c(N)c(C(N)=O)nnc2c1-c1ccc2cnn(C)c2c1` [Example 45, 4-amino-7-methyl-8-(1-methyl-1H-indazol-6-yl)cinnoline-3-carboxamide] it was 7.00; in that of `Cn1ncc2cc(-c3c(C(F)(F)F)ccc4c(N)c(C(N)=O)nnc34)ccc21` [Example 35, 4-amino-8-(1-methyl-1H-indazol-5-yl)-7-(trifluoromethyl)cinnoline-3-carboxamide], 7.10; in that of `Cc1c(-c2cccc3c(N)c(C(N)=O)nnc23)ccc2[nH]ncc12` [Example 31, 4-amino-8-(4-methyl-1H-indazol-5-yl)cinnoline-3-carboxamide], 7.40. In the case of `Cc1ccc2c(N)c(C(N)=O)nnc2c1-c1ccc2c(C#N)n[nH]c2c1` [Example 96, 4-amino-8-(3-cyano-1H-indazol-6-yl)-7-methylcinnoline-3-carboxamide] it was 6.80; in that of `Cc1ccc2c(N)c(C(N)=O)nnc2c1-c1cc(F)c2cn[nH]c2c1` [Example 102, 4-amino-8-(4-fluoro-1H-indazol-6-yl)-7-methylcinnoline-3-carboxamide], 7.60. In the case of `Cc1ccc2c(N)c(C(N)=O)nnc2c1-c1cc(C)c2c(cnn2C)c1` [Example 32, 4-amino-8-(1,7-dimethyl-1H-indazol-5-yl)-7-methylcinnoline-3-carboxamide], the negative-log IC50 (pIC50) was 7.30. The molecule `Cc1ccc2c(N)c(C(N)=O)nnc2c1-c1cc(F)c2nc[nH]c2c1` [Example 101, 4-amino-8-(4-fluoro-1H-benzo[d]imidazol-6-yl)-7-methylcinnoline-3-carboxamide] gave a pIC50 of 7.50. Compared with the last molecule, the pIC50 is 0.20 log units higher. In turn, `Cc1c(-c2cccc3c(N)c(C(N)=O)nnc23)ccc2c1cnn2C` [Example 30, 4-amino-8-(1,4-dimethyl-1H-indazol-5-yl)cinnoline-3-carboxamide] gave a pIC50 of 6.50. Against the preceding molecule, the pIC50 is 1.00 log units lower.

On to `CC1CCC(Nc2nc3ccc(-c4cccc5c(N)c(C(N)=O)nnc45)cc3[nH]2)CC1` (stereo not shown) [Example 91, 4-amino-8-(2-(4-methylcyclohexylamino)-1H-benzo[d]imidazol-6-yl)cinnoline-3-carboxamide], for which the pIC50 was 7.10.

Turning to `Cc1ccc2c(N)c(C(N)=O)nnc2c1-c1cnc2ncn(C)c2c1` [Example 97, 4-amino-7-methyl-8-(1-methyl-1H-imidazo[4,5-b]pyridin-6-yl)cinnoline-3-carboxamide], the negative logarithm of the IC50 (pIC50) is 7.00. The value for `Cc1cc2cn[nH]c2cc1-c1cc(N2CCC(O)CC2)cc2c(N)c(C(N)=O)nnc12` [Example 138, 4-amino-6-(4-hydroxypiperidin-1-yl)-8-(5-methyl-1H-indazol-6-yl)cinnoline-3-carboxamide] was 7.90; that for `NC(=O)c1nnc2c(-c3ccc4nc(C5CCCC5)[nH]c4c3)cccc2c1N` [Example 72, 4-amino-8-(2-cyclopentyl-1H-benzo[d]imidazol-6-yl)cinnoline-3-carboxamide] was 5.90; that for `CCn1cnc2cc(-c3c(C)ccc4c(N)c(C(N)=O)nnc34)ccc21` [Example 132, 4-amino-8-(1-ethyl-1H-benzo[d]imidazol-5-yl)-7-methylcinnoline-3-carboxamide] was 5.90.
